Measured values as given in ChEMBL document CHEMBL3784965, “Discovery of (R)-6-(1-(8-Fluoro-6-(1-methyl-1H-pyrazol-4-yl)-[1,2,4]triazolo[4,3-a]pyridin-3-yl)ethyl)-3-(2-methoxyethoxy)-1,6-naphthyridin-5(6H)-one (AMG 337), a Potent and Selective Inhibitor of MET with High Unbound Target Coverage and Robust In Vivo Antitumor Activity” (J Med Chem, 2016).
Converted amounts (≈) assume the structure as drawn.

Key:
[1] = Half life in Sprague-Dawley rat; format: ADME, organism-based; conditions: in vivo
[2] = Fraction unbound in Sprague-Dawley rat plasma at 5 ug/ml by equilibrium dialysis method; format: ADME, cell-free
[3] = Intrinsic clearance in rat liver microsomes; format: ADME; conditions: read-out: CLH
[4] = Fraction unbound in mouse plasma at 5 ug/ml by equilibrium dialysis method; format: ADME, cell-free
[5] = Intrinsic clearance in mouse liver microsomes; format: ADME; conditions: read-out: CLH
[6] = Clearance in Sprague-Dawley rat at 0.25 mg/kg, iv; format: ADME, organism-based; conditions: in vivo
[7] = Intrinsic clearance in human liver microsomes; format: ADME; conditions: read-out: CLH
[8] = Fraction unbound in human plasma at 5 ug/ml by equilibrium dialysis method; format: ADME, cell-free
[9] = species: Rattus norvegicus; experiment: Unbound clearance in Sprague-Dawley rat at 5 ug/ml by equilibrium dialysis method; format: ADME, organism-based; conditions: in vivo
[10] = Volume of distribution at steady state in Sprague-Dawley rat; format: ADME, organism-based; conditions: in vivo, read-out: Vdss
[11] = Oral bioavailability in Sprague-Dawley rat at 2 mg/kg; format: ADME, organism-based; conditions: in vivo
[12] = tested on: Plasma; experiment: Unbound plasma concentration in Balb/c mouse at 30 mg/kg, administered via oral gavage measured at 6 hrs; format: ADME, organism-based; conditions: in vivo
[13] = Solubility of compound in 0.01 N HCl; format: physicochemical
[14] = tested on: Mus musculus; experiment: In vivo inhibition of HGF-induced phosphorylation of MET in Balb/c mouse liver assessed as time required for >90% inhibition at 30 mg/kg administered via oral gavage; format: functional
[15] = molecular target: Hepatocyte growth factor receptor (Homo sapiens, UniProt P08581)
Description: Inhibition of HGF-mediated MET autophosphorylation in human PC3 cells preincubated for 1 hr followed by stimulation with human HGF measured after 10 mins by electrochemiluminescence immunoassay

[16] = Solubility of compound in SIF; format: physicochemical
[17] = Solubility of compound in PBS; format: physicochemical
[18] = Clearance in Sprague-Dawley rat at 0.3 mg/kg, iv; format: ADME, organism-based; conditions: in vivo
[19] = Oral bioavailability in Beagle dog at 10 mg/kg; format: ADME, organism-based, Canis lupus familiaris; conditions: in vivo
[20] = tested on: Mus musculus; experiment: In vivo inhibition of HGF-induced phosphorylation of MET in Balb/c mouse liver assessed as phosphorylated cMET level at 10 mg/kg administered via oral gavage followed by HGF injection 9 hrs post dose by electrochemiluminescence immunoassay relative to control; format: functional; set-up: scale not given: the % may be the effect or the level left
[21] = Oral bioavailability in Beagle dog at 30 mg/kg; format: ADME, organism-based, Canis lupus familiaris; conditions: in vivo
[22] = tested on: Mus musculus; experiment: In vivo inhibition of HGF-induced phosphorylation of MET in Balb/c mouse liver assessed as phosphorylated cMET level at 10 mg/kg administered via oral gavage followed by HGF injection 12 hrs post dose by electrochemiluminescence immunoassay relative to control; format: functional; set-up: scale not given: the % may be the effect or the level left
[23] = tested on: Mus musculus; experiment: Toxicity in CD1 mouse xenografted with mouse NIH-3T3/TPR-Met cells assessed as effect on body weight at 0.1 to 10 mg/kg, qd administered as oral gavage over 22 days; format: organism-based; conditions: in vivo, 528 h
[24] = Half life in iv dosed Beagle dog; format: ADME, organism-based, Canis lupus familiaris; conditions: in vivo
[25] = AUC(0 to infinity) in Beagle dog at 30 mg/kg, po; format: ADME, organism-based, Canis lupus familiaris; set-up: dose 30 mg/kg, time infinity, route oral; conditions: in vivo
[26] = tested on: Mus musculus; experiment: In vivo inhibition of HGF-induced phosphorylation of MET in Balb/c mouse liver assessed as phosphorylated cMET level at 10 mg/kg administered via oral gavage followed by HGF injection 6 hrs post dose by electrochemiluminescence immunoassay relative to control; format: functional; set-up: scale not given: the % may be the effect or the level left
[27] = (§1) Antitumor activity against mouse NIH-3T3/TPR-Met cells xenografted in CD1 mouse assessed as tumor growth inhibition administered as oral gavage, qd over 22 days; format: functional; conditions: NIH3T3, po, 528 h
[28] = tested on: Mus musculus; experiment: as §1; format: functional
[29] = tested on: Mus musculus; experiment: In vivo inhibition of HGF-induced phosphorylation of MET in Balb/c mouse liver assessed as phosphorylated cMET level at 10 mg/kg administered via oral gavage followed by HGF injection 3 hrs post dose by electrochemiluminescence immunoassay relative to control; format: functional; set-up: scale not given: the % may be the effect or the level left
[30] = AUC(0 to infinity) in Beagle dog at 10 mg/kg,po; format: ADME, organism-based, Canis lupus familiaris; set-up: dose 10 mg/kg, route oral, time infinity; conditions: in vivo
[31] = tested on: Mus musculus; experiment: In vivo inhibition of HGF-induced phosphorylation of MET in Balb/c mouse liver assessed as phosphorylated cMET level at 10 mg/kg administered via oral gavage followed by HGF injection 24 hrs post dose by electrochemiluminescence immunoassay relative to control; format: functional; set-up: scale not given: the % may be the effect or the level left
[32] = species: Canis familiaris; experiment: Unbound clearance in Beagle dog at 5 ug/ml by equilibrium dialysis method; format: ADME, organism-based, Canis lupus familiaris; conditions: in vivo
[33] = Volume of distribution at steady state in iv dosed Beagle dog; format: ADME, organism-based, Canis lupus familiaris; conditions: in vivo, read-out: Vdss
[34] = tested on: Mus musculus; experiment: In vivo inhibition of HGF-induced phosphorylation of MET in Balb/c mouse liver assessed as phosphorylated cMET level at 10 mg/kg administered via oral gavage followed by HGF injection 1 hr post dose by electrochemiluminescence immunoassay relative to control; format: functional; set-up: scale not given: the % may be the effect or the level left
[35] = Clearance in Beagle dog at 0.713 mg/kg, iv; format: ADME, organism-based, Canis lupus familiaris; conditions: in vivo

Structure (SMILES): C[C@H](c1nnc2c(F)cc(-c3cnn(C)c3)cn12)n1ccc2ncccc2c1=O
- half-life [1]: 4 h
- fraction unbound at 5 ug/ml [2]: 0.271
- microsomal CLint [3]: 8 µL/min/mg
- fraction unbound at 5 ug/ml [4]: 0.376
- microsomal CLint [5]: < 5 µL/min/mg
- clearance [6]: 4.67 mL/min/kg
- microsomal CLint [7]: < 5 µL/min/mg
- fraction unbound at 5 ug/ml [8]: 0.478
- CL free [9]: 17 mL/min/kg
- Vd [10]: 0.7 L/kg
- bioavailability [11]: 31%

Structure (SMILES): COc1ccc2c(OCc3nnc4ccc(-c5cc(F)c(F)c(F)c5)nn34)ccnc2c1
- half-life [1]: 3.5 h
- Cp(f) [12]: 34 nM
- solubility [13]: 85 µg/mL (≈ 194 µM)
- Time [14]: 6 h
- IC50 [15]: 8 nM
- solubility [16]: 17 µg/mL (≈ 38.9 µM)
- solubility [17]: 4 µg/mL (≈ 9.15 µM)
- clearance [18]: 1 mL/min/kg
- CL free [9]: 967 mL/min/kg

Structure (SMILES): COc1cnc2ccn([C@H](C)c3nnc4c(F)cc(-c5cc(C)no5)cn34)c(=O)c2c1
- half-life [1]: 1.1 h
- clearance [6]: 7.67 mL/min/kg
- Vd [10]: 0.5 L/kg
- bioavailability [11]: 31%

Structure (SMILES): COCCOc1cnc2ccn([C@H](C)c3nnc4ccc(-c5cnn(C)c5)cn34)c(=O)c2c1
- half-life [1]: 1.8 h
- fraction unbound at 5 ug/ml [2]: 0.296
- microsomal CLint [3]: < 5 µL/min/mg
- fraction unbound at 5 ug/ml [4]: 0.424
- microsomal CLint [5]: 7 µL/min/mg
- clearance [6]: 11.7 mL/min/kg
- microsomal CLint [7]: 8 µL/min/mg
- fraction unbound at 5 ug/ml [8]: 0.498
- CL free [9]: 40 mL/min/kg
- Vd [10]: 1.3 L/kg
- bioavailability [11]: 25%

Structure (SMILES): COCCOc1cnc2ccn([C@H](C)c3nnc4c(F)cc(-c5cnn(C)c5)cn34)c(=O)c2c1 [AMG-337]
- bioavailability [19]: 49%
- half-life [1]: 3 h
- Activity [20]: 92%
- fraction unbound at 5 ug/ml [2]: 0.174
- microsomal CLint [3]: 6 µL/min/mg
- bioavailability [21]: 64%
- fraction unbound at 5 ug/ml [4]: 0.366
- Activity [22]: 92%
- microsomal CLint [5]: 8 µL/min/mg
- Activity [23]: Non-toxic
- clearance [6]: 4.5 mL/min/kg
- half-life [24]: 5.9 h
- microsomal CLint [7]: 9 µL/min/mg
- AUC(0-inf) [25]: 82600 ng·h/mL
- Activity [26]: 98%
- ED50 [27]: 0.3 mg/kg
- ED90 [27]: 0.8 mg/kg
- Activity [28]: Dose-dependent effect
- Activity [29]: 98%
- AUC(0-inf) [30]: 21000 ng·h/mL
- Activity [31]: 51%
- CL free [32]: 7.67 mL/min/kg
- fraction unbound at 5 ug/ml [8]: 0.419
- Vd [33]: 1.1 L/kg
- CL free [9]: 26.7 mL/min/kg
- Activity [34]: 101%
- Vd [10]: 0.9 L/kg
- bioavailability [11]: 30%
- clearance [35]: 3.83 mL/min/kg

Structure (SMILES): COc1cnc2ccn([C@H](C)c3nnc4c(F)cc(-c5cnn(C)c5)cn34)c(=O)c2c1
- half-life [1]: 3.6 h
- fraction unbound at 5 ug/ml [2]: 0.139
- microsomal CLint [3]: 12 µL/min/mg
- fraction unbound at 5 ug/ml [4]: 0.353
- microsomal CLint [5]: 7 µL/min/mg
- clearance [6]: 2 mL/min/kg
- microsomal CLint [7]: < 5 µL/min/mg
- fraction unbound at 5 ug/ml [8]: 0.309
- CL free [9]: 15 mL/min/kg
- Vd [10]: 0.5 L/kg
- bioavailability [11]: 43%
